Source: patent US7795287B2, “Therapeutic substituted hydantoins and related compounds” (Allergan, Inc., priority 2006, dated 2010)

What was measured:
EP2 [1] = target: T1, EP2 (Homo sapiens, UniProt P43116); test: EP2 cAMP; assay type: cell-based
Text: (§1) U.S. patent application Ser. No. 11/553,143, filed on Oct. 26, 2006, incorporated by reference herein, describes the methods used to obtain the in vitro data in the table below.

EP4 = EP4 (Homo sapiens, UniProt P35408); test: EP4 binding (KI)
EP4, sequence (P35408 whole entry): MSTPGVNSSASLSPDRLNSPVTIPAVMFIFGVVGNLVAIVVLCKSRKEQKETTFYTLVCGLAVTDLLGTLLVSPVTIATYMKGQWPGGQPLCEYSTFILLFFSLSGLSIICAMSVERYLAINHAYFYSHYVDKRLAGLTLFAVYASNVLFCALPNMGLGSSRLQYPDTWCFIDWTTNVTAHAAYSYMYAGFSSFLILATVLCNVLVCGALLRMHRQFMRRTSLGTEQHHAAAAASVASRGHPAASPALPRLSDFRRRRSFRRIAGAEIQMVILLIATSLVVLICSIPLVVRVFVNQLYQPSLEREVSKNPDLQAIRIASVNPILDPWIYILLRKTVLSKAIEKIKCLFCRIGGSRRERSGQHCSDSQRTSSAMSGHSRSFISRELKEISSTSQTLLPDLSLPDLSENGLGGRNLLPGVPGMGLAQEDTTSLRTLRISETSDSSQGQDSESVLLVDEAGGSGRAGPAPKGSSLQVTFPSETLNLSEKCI
Text: as §1

hEP3A = target: T2, hEP3A (Homo sapiens, UniProt P43115); test: Other Receptors, hEP3A; assay type: cell-based
T2 sequence (P43115 1-390): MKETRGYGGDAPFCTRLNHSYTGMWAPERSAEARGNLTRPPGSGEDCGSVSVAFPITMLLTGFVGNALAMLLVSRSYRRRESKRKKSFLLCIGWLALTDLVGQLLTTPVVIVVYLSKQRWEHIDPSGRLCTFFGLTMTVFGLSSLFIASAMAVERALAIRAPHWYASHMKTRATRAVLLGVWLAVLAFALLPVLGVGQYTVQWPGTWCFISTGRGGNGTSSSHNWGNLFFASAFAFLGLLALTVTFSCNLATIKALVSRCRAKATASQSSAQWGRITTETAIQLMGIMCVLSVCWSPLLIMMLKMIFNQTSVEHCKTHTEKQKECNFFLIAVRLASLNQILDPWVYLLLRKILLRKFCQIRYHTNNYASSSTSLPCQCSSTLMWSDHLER
Text: as §1

hDP = target: T3, hDP (Homo sapiens, UniProt Q13258); test: Other Receptors, hDP; assay type: cell-based
T3 sequence (Q13258 1-359): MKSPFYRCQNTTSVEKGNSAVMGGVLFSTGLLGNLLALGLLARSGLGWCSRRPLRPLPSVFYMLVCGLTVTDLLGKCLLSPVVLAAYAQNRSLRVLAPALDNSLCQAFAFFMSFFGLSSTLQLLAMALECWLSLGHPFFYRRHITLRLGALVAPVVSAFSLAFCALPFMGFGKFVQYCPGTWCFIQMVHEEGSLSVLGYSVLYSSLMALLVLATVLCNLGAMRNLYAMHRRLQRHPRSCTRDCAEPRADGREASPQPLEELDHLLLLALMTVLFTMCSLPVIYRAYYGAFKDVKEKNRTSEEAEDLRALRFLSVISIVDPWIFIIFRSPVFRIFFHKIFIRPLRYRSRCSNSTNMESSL
Text: as §1

EP2 [2] = target: T1, EP2; test: EP2 binding (Ki)
Text: as §1

EP2 [3] = target: T1, EP2; test: EP2 flipr; assay type: cell-based
Text: as §1

normotensive dogs = test: Ocular surface hyperemia in normotensive dogs; assay type: in vivo; conditions: 0.003%, once daily for 5 days, maximum at 26 h
Procedure: U.S. Pat. No. 7,091,231 describes the methods used to carry out the tests reported below.
Isopropyl 5-(3-(3-(4-(1-hydroxyhexyl)phenyl)-2,5-dioxoimidazolidin-4-yl)propyl)thiophene-2-carboxylate (31) was tested in normotensive dogs at 0.003%, dosing once daily for 5 days. The maximum intraocular pressure (IOP) decrease from baseline was 7.7 mmHg (45%) at 102 h; the maximum ocular surface hyperemia (OSH) score was 2.5 at 26 h.

T1 sequence (P43116 whole entry): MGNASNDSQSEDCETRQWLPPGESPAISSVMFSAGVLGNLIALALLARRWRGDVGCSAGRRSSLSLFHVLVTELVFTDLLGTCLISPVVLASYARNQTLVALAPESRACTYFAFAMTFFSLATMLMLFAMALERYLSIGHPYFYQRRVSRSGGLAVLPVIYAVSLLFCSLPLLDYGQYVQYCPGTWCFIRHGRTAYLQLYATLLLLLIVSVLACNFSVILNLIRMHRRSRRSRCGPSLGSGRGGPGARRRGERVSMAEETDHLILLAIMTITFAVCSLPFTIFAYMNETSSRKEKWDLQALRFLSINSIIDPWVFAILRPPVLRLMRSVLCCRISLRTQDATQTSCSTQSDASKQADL

Structure (SMILES)	EC50 (EP2 [1])	Ki (EP4)	EC50 (hEP3A)	EC50 (hDP)	Ki (EP2 [2])	EC50 (EP2 [3])	maximum ocular surface hyperemia (OSH) score (normotensive dogs)
CCCCCC(=O)c1ccc(N2C(=O)NC(=O)C2CCCc2ccc(C(=O)O)s2)cc1 (centres unmarked)	0.2 nM	–	–	–	–	–	–
CCCCCC(O)c1ccc(N2C(=O)NC(=O)C2CCCc2ccc(C(=O)O)s2)cc1 (centres unmarked)	0.1 nM	> 10000 nM	10 nM	17400 nM	5 nM	3.5 nM	–
CCCCCC(O)c1ccc(N2C(=O)NC(=O)C2CCCc2ccc(C(=O)OC(C)C)s2)cc1 (centres unmarked) [Compound 31, Isopropyl 5-(3-(3-(4-(1-hydroxyhexyl)phenyl)-2,5-dioxoimidazolidin-4-yl)propyl)thiophene-2-carboxylate]	–	–	–	–	–	–	2.5
